IC50 data for 24 compounds are collected here from patent US20240360165A1, “INHIBITORS OF CYCLIN DEPENDENT KINASE 7 (CDK7)” (Syros Pharmaceuticals, Inc., priority 2016, published 2024).

The structures appear in SMILES notation. pIC50: −log10 of the molar value. Where two headings read alike, the source gives them in different places.

For one experiment, the target named is CDK9/Cyclin T1 complex (Homo sapiens, UniProt P50750). Put plainly: CDK9 inhibition assay (Caliper/LabChip EZ Reader kinase assay). The format is biochemical. To be noted: Table 1; CDK9/Cyclin T1 8 nM, ATP 2 mM, 15 min at 27° C. Here is the method:
(§1) Compounds of the invention were assayed for inhibition of CDK7, CDK9, CDK12, and CDK2 activity at Biortus Biosciences (Jiangyin, Jiangsu Province, P.R. of China) using kinase assays for each CDK developed with a Caliper/LabChip EZ Reader (Perkin Elmer, Waltham, MA).
(§2) Furthermore, the CDK9 inhibition assay used CDK9/Cyclin T1 complex (8 nM) and “5-FAM-CDK9tide” peptide substrate (2 μM, synthesized fluorophore-labeled peptide with the following sequence: 5-FAM-GSRTPMY-NH2 where 5-FAM is defined above and NH2 signifies a C-terminal amide) with 10 mM MgCl2 in the buffer composition listed above. […] Additionally, the CDK2 inhibition assay used CDK2/Cyclin E1 complex (0.5 nM) and “5-FAM-CDK7tide” ([…]) as defined above, with 2 mM MgCl2 in the buffer composition listed above.

In experiment [1] the target is T1, CDK12 (aa686-1082)/Cyclin K complex (Homo sapiens, UniProt Q9NYV4).
T1 construct: CDK12 (aa686-1082)/Cyclin K complex
Put plainly: CDK12 inhibition assay (Caliper/LabChip EZ Reader kinase assay). To be noted: Table 1; CDK12 (aa686-1082)/Cyclin K 50 nM, ATP 2 mM, 3 hr at 27° C. It is filed as biochemical. Here is the method: as §1, §2

The target in another experiment is CDK2/Cyclin E1 complex (Homo sapiens, UniProt P24941). Put plainly: CDK2 inhibition assay (Caliper/LabChip EZ Reader kinase assay). The format is biochemical. To be noted: Table 1; CDK2/Cyclin E1 0.5 nM, ATP 2 mM, 35 min at 27° C. The method, then: as §1, §2
For experiment [2], the target named is CDK7/Cyclin H/MAT1 complex (Homo sapiens, UniProt P50613). Put plainly: CDK7 inhibition assay (Caliper/LabChip EZ Reader kinase assay). To be noted: Table 1; CDK7/Cyclin H/MAT1 6 nM, ATP 2 mM, 35 min at 27° C. It is filed as biochemical. The method, then:
as §1, §2

The next experiment has as its system A673 cells. Briefly: Inhibition of proliferation of A673 cells (CyQUANT, 72 hour). It is filed as cell-based, human. To be noted: A673 cells, 72 hour, CyQUANT, read-out: Inhibition of Proliferation of A673 Cells (calculated IC50). Here is the method: A673 cells are a cell line derived from human […] Ewing's sarcoma. Representative compounds of the invention were tested at different concentrations (from […]; 0.5 log serial dilutions) for their ability to inhibit the proliferation of A673 cells. Known CDK inhibitors dinaciclib or N-((1S,3R)-3-((5-chloro-4-(1H-indol-3-yl)pyrimidin-2-yl)amino)cyclohexyl)-5-((E)-4-(dimethylamino)but-2-enamido)picolinamide and triptolide were used as positive controls. Cells were grown in Dulbecco's Modified Eagle's Medium, +10% FBS+1 mM Sodium Pyruvate. The cells were cultured at 37° C. in a humidified chamber in the presence of 5% CO2. Proliferation assays were conducted over a 72 hour time period. CyQUANT® (Life Technologies, Chicago, IL USA) was used to assess the anti-proliferative effects of the compounds following manufacturer's directions and utilizing the reagents supplied with the CyQUANT® kit.

Sequence of CDK9/Cyclin T1 complex (P50750 whole entry, species assumed): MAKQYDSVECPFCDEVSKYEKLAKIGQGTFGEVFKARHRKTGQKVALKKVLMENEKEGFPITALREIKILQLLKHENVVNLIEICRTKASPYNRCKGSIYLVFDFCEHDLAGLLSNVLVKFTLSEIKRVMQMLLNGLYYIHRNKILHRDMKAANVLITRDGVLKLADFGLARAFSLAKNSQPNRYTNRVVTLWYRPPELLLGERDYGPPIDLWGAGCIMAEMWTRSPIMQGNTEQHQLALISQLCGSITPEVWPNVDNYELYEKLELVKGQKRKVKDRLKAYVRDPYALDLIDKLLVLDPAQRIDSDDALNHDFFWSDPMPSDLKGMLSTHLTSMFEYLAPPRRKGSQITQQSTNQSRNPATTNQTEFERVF
Sequence of CDK9/Cyclin T1 complex (O60563 whole entry partner, species assumed): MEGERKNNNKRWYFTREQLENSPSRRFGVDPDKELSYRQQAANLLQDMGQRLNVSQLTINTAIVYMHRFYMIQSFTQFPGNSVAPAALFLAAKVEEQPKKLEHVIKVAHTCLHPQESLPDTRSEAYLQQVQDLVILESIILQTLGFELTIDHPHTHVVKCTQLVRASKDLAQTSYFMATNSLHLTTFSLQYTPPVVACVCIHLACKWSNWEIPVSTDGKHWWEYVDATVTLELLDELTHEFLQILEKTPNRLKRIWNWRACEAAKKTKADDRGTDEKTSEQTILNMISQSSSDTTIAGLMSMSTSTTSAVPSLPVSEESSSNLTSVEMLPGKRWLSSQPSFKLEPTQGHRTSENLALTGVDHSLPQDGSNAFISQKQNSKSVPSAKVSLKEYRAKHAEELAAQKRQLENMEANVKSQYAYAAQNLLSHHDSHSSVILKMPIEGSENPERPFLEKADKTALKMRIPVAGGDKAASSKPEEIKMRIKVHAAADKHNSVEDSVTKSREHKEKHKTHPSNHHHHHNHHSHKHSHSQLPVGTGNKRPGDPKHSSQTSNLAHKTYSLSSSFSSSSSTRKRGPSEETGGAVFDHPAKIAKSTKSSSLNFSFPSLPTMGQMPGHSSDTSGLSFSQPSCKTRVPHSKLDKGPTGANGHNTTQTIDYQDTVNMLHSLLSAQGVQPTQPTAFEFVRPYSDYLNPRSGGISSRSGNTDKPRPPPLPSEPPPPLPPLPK
T1 sequence (Q9NYV4 686-1082, species assumed): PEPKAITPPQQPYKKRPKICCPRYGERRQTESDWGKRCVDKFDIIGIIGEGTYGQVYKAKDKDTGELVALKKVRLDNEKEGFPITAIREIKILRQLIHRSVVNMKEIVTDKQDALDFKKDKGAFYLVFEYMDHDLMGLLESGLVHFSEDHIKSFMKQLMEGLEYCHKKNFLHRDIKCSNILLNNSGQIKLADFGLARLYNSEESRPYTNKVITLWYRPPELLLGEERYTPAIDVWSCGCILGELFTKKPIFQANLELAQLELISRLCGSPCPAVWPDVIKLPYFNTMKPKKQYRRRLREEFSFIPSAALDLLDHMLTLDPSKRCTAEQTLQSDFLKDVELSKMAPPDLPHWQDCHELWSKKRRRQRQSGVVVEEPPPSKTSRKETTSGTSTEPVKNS
T1 sequence (O75909 whole entry partner, species assumed, the tested form may be a part): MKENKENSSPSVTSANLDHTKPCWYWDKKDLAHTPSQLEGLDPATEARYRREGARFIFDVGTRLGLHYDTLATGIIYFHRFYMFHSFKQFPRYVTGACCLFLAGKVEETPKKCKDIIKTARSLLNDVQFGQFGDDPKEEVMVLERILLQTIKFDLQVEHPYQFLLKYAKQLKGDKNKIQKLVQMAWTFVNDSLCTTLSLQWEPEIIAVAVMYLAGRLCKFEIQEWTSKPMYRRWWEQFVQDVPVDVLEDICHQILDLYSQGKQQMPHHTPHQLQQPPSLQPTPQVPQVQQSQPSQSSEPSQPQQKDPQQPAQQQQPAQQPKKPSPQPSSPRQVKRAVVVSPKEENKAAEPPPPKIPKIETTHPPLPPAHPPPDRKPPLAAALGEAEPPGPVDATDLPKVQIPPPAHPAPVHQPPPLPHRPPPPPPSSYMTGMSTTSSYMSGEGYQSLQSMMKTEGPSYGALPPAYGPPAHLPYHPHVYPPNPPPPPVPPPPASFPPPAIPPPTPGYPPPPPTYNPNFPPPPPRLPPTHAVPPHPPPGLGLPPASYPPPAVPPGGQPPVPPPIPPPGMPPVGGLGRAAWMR
Sequence of CDK7/Cyclin H/MAT1 complex (P50613 whole entry, species assumed): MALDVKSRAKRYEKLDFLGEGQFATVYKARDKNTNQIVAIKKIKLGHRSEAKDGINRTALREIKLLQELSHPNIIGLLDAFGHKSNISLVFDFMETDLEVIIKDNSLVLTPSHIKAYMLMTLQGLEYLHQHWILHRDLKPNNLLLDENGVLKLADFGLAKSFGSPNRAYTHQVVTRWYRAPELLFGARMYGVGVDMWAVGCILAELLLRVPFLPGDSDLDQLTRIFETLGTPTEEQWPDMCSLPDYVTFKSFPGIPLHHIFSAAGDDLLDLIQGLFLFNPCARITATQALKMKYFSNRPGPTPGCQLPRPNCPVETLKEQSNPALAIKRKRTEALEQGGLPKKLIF
Sequence of CDK7/Cyclin H/MAT1 complex (P51946 whole entry partner, species assumed): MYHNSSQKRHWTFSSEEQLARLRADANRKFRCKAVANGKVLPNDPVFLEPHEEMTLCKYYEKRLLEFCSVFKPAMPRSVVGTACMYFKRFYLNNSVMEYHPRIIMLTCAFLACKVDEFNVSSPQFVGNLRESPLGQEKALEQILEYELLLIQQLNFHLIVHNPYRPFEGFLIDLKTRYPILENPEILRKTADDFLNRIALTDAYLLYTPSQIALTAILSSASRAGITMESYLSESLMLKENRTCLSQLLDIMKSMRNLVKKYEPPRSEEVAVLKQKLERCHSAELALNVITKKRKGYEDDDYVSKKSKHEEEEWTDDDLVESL
Sequence of CDK7/Cyclin H/MAT1 complex (P51948 whole entry partner, species assumed): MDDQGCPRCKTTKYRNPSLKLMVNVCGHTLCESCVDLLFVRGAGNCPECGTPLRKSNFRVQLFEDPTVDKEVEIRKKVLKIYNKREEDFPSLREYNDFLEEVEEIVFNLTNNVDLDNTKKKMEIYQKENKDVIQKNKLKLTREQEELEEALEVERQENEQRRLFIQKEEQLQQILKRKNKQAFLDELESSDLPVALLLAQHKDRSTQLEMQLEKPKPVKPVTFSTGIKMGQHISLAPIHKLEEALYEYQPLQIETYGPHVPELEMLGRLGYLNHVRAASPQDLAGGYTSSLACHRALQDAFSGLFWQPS

On to `CC(O)c1cnc(NC2CCCNC2)nc1-c1c[nH]c2ccccc12` (single isomer, unassigned) [Compound 238], for which the pIC50 against CDK9/Cyclin T1 complex is below 5.30; in experiment [1], below 5.30; against CDK2/Cyclin E1 complex it was below 5.30; in experiment [2], 5.30 to 6.70; with A673 cells (Homo sapiens, A673, 72 h) it was 5.30 to 6.70.

As to `CC(O)c1cnc(NC2CCCNC2)nc1-c1c[nH]c2ccccc12` (single isomer, unassigned) [Compound 239], the pIC50 against CDK9/Cyclin T1 complex is below 5.30; in experiment [1], below 5.30; on CDK2/Cyclin E1 complex it was below 5.30; in experiment [2], 5.30 to 6.70; with A673 cells it was 5.30 to 6.70.

With `CNC(=O)C1CNCC(Nc2ncc(C(F)(F)F)c(-c3c[nH]c4ccccc34)n2)C1` (single isomer, unassigned) [Compound 252], the pIC50 at CDK9/Cyclin T1 complex was below 5.30; in experiment [1], below 5.30; against CDK2/Cyclin E1 complex it was 5.30 to 6.70; in experiment [2], 6.70 to 7.70; in the experiment on A673 cells it was 5.30 to 6.70.

On to `CNC(=O)C1CNCC(Nc2ncc(C(F)(F)F)c(-c3c[nH]c4ccccc34)n2)C1` (single isomer, unassigned) [Compound 253], for which the pIC50 is 5.30 to 6.70 against CDK9/Cyclin T1 complex; 6.70 to 7.70 in experiment [1]; 6.70 to 7.70 against CDK2/Cyclin E1 complex; above 7.70 in experiment [2]; 6.70 to 7.70 in the experiment on A673 cells.

With `CCC(=O)N[C@@H]1CNC[C@H](Nc2ncc(C(F)(F)F)c(-c3c[nH]c4c(S(C)(=O)=O)cccc34)n2)C1` (single isomer, unassigned) [Compound 259], the pIC50 is 5.30 to 6.70 against CDK9/Cyclin T1 complex; 5.30 to 6.70 in experiment [1]; 5.30 to 6.70 on CDK2/Cyclin E1 complex; above 7.70 in experiment [2]; 6.70 to 7.70 in the experiment on A673 cells (Homo sapiens, A673, 72 h).

Turning to `Brc1cnc(NC2CCCNC2)nc1-c1c[nH]c2ccccc12` (stereo in doubt) [Compound 133], the pIC50 on CDK9/Cyclin T1 complex is 5.30 to 6.70; in experiment [1], 6.70 to 7.70; against CDK2/Cyclin E1 complex it was 6.70 to 7.70; in experiment [2], above 7.70; in the experiment with A673 cells (Homo sapiens, A673, 72 h) it was above 7.70.

Regarding `Fc1cc2[nH]cc(-c3nc(N[C@H]4CCCNC4)ncc3Cl)c2cc1F` [Compound 111], the pIC50 against CDK9/Cyclin T1 complex was 6.70 to 7.70; in experiment [1], 6.70 to 7.70; against CDK2/Cyclin E1 complex it was 5.30 to 6.70; in experiment [2], above 7.70; in the experiment with A673 cells (Homo sapiens, A673, 72 h), 6.70 to 7.70.

Turning to `Clc1cnc(N[C@@H]2CN3CCC2CC3)nc1-c1c[nH]c2ccccc12` [Compound 131, (S)—N-(5-chloro-4-(1H-indol-3-yl)pyrimidin-2-yl)quinuclidin-3-amine], the pIC50 at CDK9/Cyclin T1 complex is below 5.30; in experiment [1], below 5.30; at CDK2/Cyclin E1 complex it was below 5.30; in experiment [2] it was below 5.30; with A673 cells (Homo sapiens, A673, 72 h), 5.30 to 6.70.

For `Clc1cnc(N[C@H]2CN3CCC2CC3)nc1-c1c[nH]c2ccccc12` [Compound 134], the pIC50 was below 5.30 against CDK9/Cyclin T1 complex; below 5.30 in experiment [1]; below 5.30 at CDK2/Cyclin E1 complex; below 5.30 in experiment [2]; 5.30 to 6.70 with A673 cells.

For `c1ccc2c(-c3nc(N[C@H]4CCCNC4)ncc3C3CC3)c[nH]c2c1` [Compound 135], the pIC50 against CDK9/Cyclin T1 complex was below 5.30; in experiment [1] it was below 5.30; on CDK2/Cyclin E1 complex it was below 5.30; in experiment [2], 6.70 to 7.70; with A673 cells (Homo sapiens, A673, 72 h) it was 5.30 to 6.70.

For the compound `CN1CCC[C@H](Nc2ncc(Cl)c(-c3c[nH]c4ccccc34)n2)C1` [Compound 136], the pIC50 on CDK9/Cyclin T1 complex was 5.30 to 6.70; in experiment [1], 5.30 to 6.70; on CDK2/Cyclin E1 complex it was 5.30 to 6.70; in experiment [2] it was above 7.70; in the experiment on A673 cells (Homo sapiens, A673, 72 h), 6.70 to 7.70.

Regarding `CCc1cnc(N[C@H]2CCCNC2)nc1-c1n[nH]c2c(F)cccc12` [Compound 143, (S)-5-ethyl-4-(7-fluoro-1H-indazol-3-yl)-N-(piperidin-3-yl)pyrimidin-2-amine], the pIC50 against CDK9/Cyclin T1 complex is 5.30 to 6.70; in experiment [1], 5.30 to 6.70; at CDK2/Cyclin E1 complex, 5.30 to 6.70; in experiment [2] it was above 7.70; with A673 cells (Homo sapiens, A673, 72 h), above 7.70.

With `CC(C)CN1CCC[C@H](Nc2ncc(Cl)c(-c3c[nH]c4ccccc34)n2)C1` [Compound 145], the pIC50 against CDK9/Cyclin T1 complex was below 5.30; in experiment [1], 5.30 to 6.70; against CDK2/Cyclin E1 complex it was below 5.30; in experiment [2] it was 6.70 to 7.70; with A673 cells (Homo sapiens, A673, 72 h) it was 5.30 to 6.70.

For `Ic1cnc(N[C@H]2CCCNC2)nc1-c1c[nH]c2ccccc12` [Compound 147], the pIC50 against CDK9/Cyclin T1 complex is 5.30 to 6.70; in experiment [1] it was 5.30 to 6.70; at CDK2/Cyclin E1 complex, 6.70 to 7.70; in experiment [2], above 7.70; with A673 cells it was above 7.70.

In the case of `CC(C)N1CCC[C@H](Nc2ncc(Cl)c(-c3c[nH]c4ccccc34)n2)C1` [Compound 148], the pIC50 is 5.30 to 6.70 against CDK9/Cyclin T1 complex; 5.30 to 6.70 in experiment [1]; below 5.30 against CDK2/Cyclin E1 complex; 6.70 to 7.70 in experiment [2]; 6.70 to 7.70 with A673 cells (Homo sapiens, A673, 72 h).

As for `COCCN1CCC[C@H](Nc2ncc(Cl)c(-c3c[nH]c4ccccc34)n2)C1` [Compound 149], the pIC50 was 5.30 to 6.70 against CDK9/Cyclin T1 complex; 5.30 to 6.70 in experiment [1]; 5.30 to 6.70 on CDK2/Cyclin E1 complex; 6.70 to 7.70 in experiment [2]; 6.70 to 7.70 in the experiment with A673 cells.

With `N#Cc1cnc(N[C@H]2CCCNC2)nc1-c1c[nH]c2ccccc12` [Compound 157], the pIC50 against CDK9/Cyclin T1 complex is 5.30 to 6.70; in experiment [1], 5.30 to 6.70; on CDK2/Cyclin E1 complex, 5.30 to 6.70; in experiment [2], above 7.70; with A673 cells (Homo sapiens, A673, 72 h), above 7.70.

Consider `CCOP(=O)(OCC)c1cccc2c(-c3nc(N[C@H]4CCCNC4)ncc3C(F)(F)F)c[nH]c12` [Compound 168], for which the pIC50 was below 5.30 against CDK9/Cyclin T1 complex; below 5.30 in experiment [1]; below 5.30 on CDK2/Cyclin E1 complex; 5.30 to 6.70 in experiment [2]; 5.30 to 6.70 with A673 cells (Homo sapiens).

Consider `Cc1nn(C)cc1-c1cccc2c(-c3nc(N[C@H]4CCCNC4)ncc3C(F)(F)F)c[nH]c12` [Compound 171], for which the pIC50 on CDK9/Cyclin T1 complex is 5.30 to 6.70; in experiment [1], 5.30 to 6.70; against CDK2/Cyclin E1 complex, 5.30 to 6.70; in experiment [2], above 7.70; with A673 cells (Homo sapiens, A673, 72 h), above 7.70.

As to `Cc1cn(-c2cccc3c(-c4nc(N[C@H]5CCCNC5)ncc4C(F)(F)F)c[nH]c23)cn1` [Compound 172], the pIC50 is 5.30 to 6.70 against CDK9/Cyclin T1 complex; 5.30 to 6.70 in experiment [1]; 5.30 to 6.70 on CDK2/Cyclin E1 complex; above 7.70 in experiment [2]; above 7.70 in the experiment with A673 cells (Homo sapiens, A673, 72 h).

As to `CCOP(C)(=O)c1cccc2c(-c3nc(N[C@H]4CCCNC4)ncc3C(F)(F)F)c[nH]c12` (stereo partly drawn) [Compound 179], the pIC50 on CDK9/Cyclin T1 complex was 5.30 to 6.70; in experiment [1] it was 5.30 to 6.70; against CDK2/Cyclin E1 complex it was 5.30 to 6.70; in experiment [2] it was above 7.70; in the experiment with A673 cells (Homo sapiens), above 7.70.

As to `Fc1cc2[nH]cc(-c3nc(N[C@H]4CCCNC4)ncc3C(F)(F)F)c2cc1F` [Compound 184], the pIC50 against CDK9/Cyclin T1 complex was 6.70 to 7.70; in experiment [1], 6.70 to 7.70; at CDK2/Cyclin E1 complex, 6.70 to 7.70; in experiment [2], above 7.70; with A673 cells, above 7.70.

Regarding `COc1cnc(N[C@H]2CCCNC2)nc1-c1c[nH]c2ccccc12` [Compound 189], the pIC50 at CDK9/Cyclin T1 complex is below 5.30; in experiment [1] it was below 5.30; at CDK2/Cyclin E1 complex, below 5.30; in experiment [2], 5.30 to 6.70; with A673 cells, 5.30 to 6.70.

As for `CC(C)(O)CCc1cccc2c(-c3nc(N[C@H]4CCCNC4)ncc3C(F)(F)F)c[nH]c12` [Compound 191], the pIC50 was 5.30 to 6.70 against CDK9/Cyclin T1 complex; 5.30 to 6.70 in experiment [1]; 5.30 to 6.70 at CDK2/Cyclin E1 complex; above 7.70 in experiment [2]; above 7.70 in the experiment with A673 cells.
